According to patent publication US6608086B2, “Dihydropyridines and new uses thereof” (Synaptic Pharmaceutical Corporation, priority 1993, dated 2003):
Structures can show the parent of a compound that is named as a salt. Where two headings read alike, the source gives them in different places.

Legend:
[1] = target: T1, α1C Human Adrenergic Receptor (Homo sapiens, UniProt P35348); assay: Radioligand binding, [3H]prazosin, cloned human α1C adrenergic receptor
T1 construct: The entire coding region of α1C (1401 bp); expressed in transfected cells
T1 sequence (P35348 1-466): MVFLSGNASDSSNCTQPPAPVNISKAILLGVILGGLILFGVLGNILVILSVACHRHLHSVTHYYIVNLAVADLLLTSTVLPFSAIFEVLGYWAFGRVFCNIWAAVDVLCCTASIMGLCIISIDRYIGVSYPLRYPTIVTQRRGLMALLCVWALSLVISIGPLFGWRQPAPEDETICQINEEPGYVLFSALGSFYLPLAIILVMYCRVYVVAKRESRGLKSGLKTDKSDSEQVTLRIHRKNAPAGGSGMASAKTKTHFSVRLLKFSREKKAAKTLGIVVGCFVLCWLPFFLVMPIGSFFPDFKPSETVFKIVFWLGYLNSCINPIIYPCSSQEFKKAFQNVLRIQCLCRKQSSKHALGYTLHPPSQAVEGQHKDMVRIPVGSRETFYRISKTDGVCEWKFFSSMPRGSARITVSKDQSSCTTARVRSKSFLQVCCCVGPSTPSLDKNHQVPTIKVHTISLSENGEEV
In short: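 Stably transfected mouse LM(tk−) fibroblast membranes bearing the cloned human α1C adrenoceptor served as receptor source. Specific binding was taken as the portion of 0.5 nM [3H]prazosin displaceable by 10 μM phentolamine after 20 min at 37° C., pH 7.5, in Mg2+/ascorbate-containing Tris buffer.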

[2] = target: T2, α2B receptor (Homo sapiens, UniProt P18089); assay: Competition binding, [3H]rauwolscine, human α2B receptor; conditions: pKi alpha-2 2b
T2 construct: host or cells: LM(tk-) cells, line L-NGC-α2B
T2 sequence (P18089 1-450): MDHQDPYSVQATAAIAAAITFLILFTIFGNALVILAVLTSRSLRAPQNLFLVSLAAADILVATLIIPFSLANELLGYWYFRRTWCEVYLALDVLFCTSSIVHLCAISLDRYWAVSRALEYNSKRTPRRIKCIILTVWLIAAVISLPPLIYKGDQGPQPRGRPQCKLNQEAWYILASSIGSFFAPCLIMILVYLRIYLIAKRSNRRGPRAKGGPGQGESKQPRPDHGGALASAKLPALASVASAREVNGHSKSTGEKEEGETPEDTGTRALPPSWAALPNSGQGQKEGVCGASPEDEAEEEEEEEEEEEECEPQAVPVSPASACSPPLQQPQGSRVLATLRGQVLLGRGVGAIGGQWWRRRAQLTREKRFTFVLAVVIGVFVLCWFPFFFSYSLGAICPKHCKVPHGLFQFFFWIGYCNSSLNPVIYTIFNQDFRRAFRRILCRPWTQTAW
In short: (§1)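 Using 25 mM glycylglycine buffer at pH 7.6 (room temperature), membranes from LM(tk−) cells carrying α2A, α2B or α2C were competed against 0.5 nM [3H]rauwolscine to equilibrium. Separation was by GF/B filtration; phentolamine (10 μM) set nonspecific binding.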

[3] = target: T3, α2A receptor (Homo sapiens, UniProt P08913); assay: Competition binding, [3H]rauwolscine, human α2A receptor
T3 construct: host or cells: LM(tk-) cells, line L-α2A
T3 sequence (P08913 1-465): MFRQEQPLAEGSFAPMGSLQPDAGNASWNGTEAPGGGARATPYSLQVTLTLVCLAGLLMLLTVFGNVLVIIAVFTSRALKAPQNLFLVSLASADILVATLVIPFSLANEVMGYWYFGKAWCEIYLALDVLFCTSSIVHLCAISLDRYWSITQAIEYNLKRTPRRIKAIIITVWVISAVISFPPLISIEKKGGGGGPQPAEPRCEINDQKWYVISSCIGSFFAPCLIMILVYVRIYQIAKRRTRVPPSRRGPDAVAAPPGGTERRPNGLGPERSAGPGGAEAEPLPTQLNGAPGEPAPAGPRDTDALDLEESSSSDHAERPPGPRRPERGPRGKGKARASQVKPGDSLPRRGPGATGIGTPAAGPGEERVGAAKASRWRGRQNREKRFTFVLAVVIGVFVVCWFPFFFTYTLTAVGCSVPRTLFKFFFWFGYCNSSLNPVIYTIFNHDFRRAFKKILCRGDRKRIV
In short: as §1

[4] = cloned human α1C receptor, LM(tk−) cell membranes, read-out: pKi alpha-1 1c (converted)
[5] = pKi alpha-1 1c, cloned human α1C receptor, LM(tk−) cell membranes
[6] = [3H]rauwolscine, human α2B receptor, LM(tk−) cells
[7] = [3H]rauwolscine, human α2A receptor, LM(tk−) cells, read-out: pKi alpha-2 2a (converted)
[8] = cloned human receptor in LM(tk-) cell membranes, SEM and n in lines below, read-out: pKi alpha-1 1c (converted)
[9] = pKi alpha-1 1c, cloned human receptor in LM(tk-) cell membranes, SEM and n in lines below
[10] = [3H]rauwolscine, LM(tk-) cell line L-NGC-α2B, SEM and n in lines below
[11] = [3H]rauwolscine, LM(tk-) cell line L-α2A, SEM and n in lines below, read-out: pKi alpha-2 2a (converted)

**Q.** With COC(=O)C1=C(C)N(C)C(C)=C(C(=O)OCCCN2CCC(c3ccccc3)(c3ccccc3)CC2)C1c1ccc([N+](=O)[O-])cc1 (stereo not drawn) [Example 92, 1,4-Dihydro-5-methoxycarbonyl-1,2,6-trimethyl-4-(4-nitrophenyl)-3-[3-(4,4-diphenylpiperidin-1-yl)propoxy]carbonylpyridine hydrochloride hydrate] as the molecule, how does the Ki [1, 4] read?
**A.** 0.00309 µM

**Q.** What about the Ki [2] of the same molecule?
**A.** 0.724 µM

**Q.** And the Ki [3]?
**A.** 3.16 µM

**Q.** Which Ki [1, 5] does the source give for CCC1=C(C(=O)NCCCN2CCC(c3ccccc3)(c3ccccc3)CC2)C(c2ccc([N+](=O)[O-])cc2)C(C(N)=O)=C(COCCN=[N+]=[N-])N1 (stereo not drawn) [Example 149, 2-((2-Azidoethyl)oxy)methyl-3-carboxamido-6-ethyl-1,4-dihydro-4-(4-nitro) phenyl-5-(N-(3-(4,4-diphenylpiperidin-1-yl)propyl))carboxamidopyridine] here?
**A.** 0.0055 µM

**Q.** What about the Ki [2, 6] of the same molecule?
**A.** 0.562 µM

**Q.** And the Ki [3, 7]?
**A.** 0.501 µM

**Q.** With CC1=C(C(N)=O)C(c2ccc(S(C)(=O)=O)cc2)C(C(=O)NCCCN2CCC(c3ccccc3)(c3ccccc3)CC2)=C(C)N1 (stereo not drawn) [Example 115, 5-Carboxamido-1,4-4-dihydro-4-(4-methanesufonylphenyl)-2,6-dimethyl-3-(N-(3-(4,4-diphenylpiperidin-1-yl)propyl)carboxamido)-pyridine] as the molecule, how does the Ki [1, 5] read?
**A.** 0.0589 µM

**Q.** And the Ki [2, 6]?
**A.** 0.776 µM

**Q.** And the Ki [3, 7]?
**A.** 3.98 µM

**Q.** COc1ccc(C2(c3ccccc3)CCN(CCCNC(=O)C3=C(C)NC(C)=C(C(N)=O)C3c3ccc([N+](=O)[O-])cc3)CC2)cc1 (stereo not drawn) [Example 98, 5-Carboxamido-1,4-dihydro-3-{N-[3-(4-(4-methoxyphenyl)-4-phenylpiperidin-1-yl)propyl]}carboxamido-2,6-dimethyl-4-(4-nitrophenyl)pyridine hydrochloride] was tested. Which Ki [1, 5] did it give?
**A.** 0.00479 µM

**Q.** And the Ki [2, 6]?
**A.** 0.589 µM

**Q.** What about the Ki [3, 7] of the same molecule?
**A.** 0.355 µM

**Q.** CCC1=C(C(N)=O)C(c2ccc([N+](=O)[O-])cc2)C(C(=O)NCCCN2CCC(C#N)(c3ccccc3)CC2)=C(CC)N1 (racemic) [(±)-102, 5-Carboxamido-3-{N-[(4-cyano-4-phenylpiperidin-1-ly)propyl]carboxamido-2,6-diethyl-1,4-dihydro-4-(4-nitrophenyl)pyridine hydrochloride hydrate] was tested. Which Ki [1, 5] did it give?
**A.** 0.0038 µM

**Q.** And the Ki [2, 6]?
**A.** 1.02 µM

**Q.** And the Ki [3, 7]?
**A.** 2.88 µM

**Q.** Which Ki [1, 8] does the source give for COC(=O)C1=C(C)NC(C)=C(C(=O)NCCCN2CCC(c3ccccc3)(c3ccccc3)CC2)C1c1ccc(I)cc1 (stereo not drawn) [Example 13, 1,4-Dihydro-4-(4-iodophenyl)-3-methoxycarbonyl-2,6-dimethyl-5-(N-(3-(4,4-diphenylpiperidin-1-yl)propyl)carboxamido)pyridine] here?
**A.** 0.00724 µM

**Q.** What about the Ki [2] of the same molecule?
**A.** 1.74 µM

**Q.** And the Ki [3]?
**A.** 1.26 µM

**Q.** COC(=O)C1=C(C)NC(C)=C(C(=O)NCCCN2CCC(c3ccccc3)(c3ccccc3)CC2)C1c1cccnc1 (stereo not drawn) [Example 14, 1,4-Dihydro-3-methoxycarbonyl-2.6-dimethyl-5-(N-(3-(4,4-diphenylpiperidin-1-yl)propyl)carboxamido)-4-(3-pyridyl)pyridine] was tested. Which Ki [1, 9] did it give?
**A.** 0.0407 µM

**Q.** And the Ki [2, 10]?
**A.** 1.35 µM

**Q.** What about the Ki [3, 11] of the same molecule?
**A.** 2.88 µM

**Q.** Which Ki [1, 5] does the source give for CCC1=C(C(=O)NC)C(c2ccc([N+](=O)[O-])cc2)C(C(=O)NCCCN2CCC(c3ccccc3)(c3ccccc3)CC2)=C(CC)N1 (stereo not drawn) [Example 128, 2,6-Diethyl-1,4-dihydro-5-(N-methyl)carboxamido-4-(4-nitrophenyl)-3-{N-[3-(4,4-diphenylpiperidin-1-yl)propyl]}carboxamidopyridine] here?
**A.** 0.00339 µM

**Q.** What about the Ki [2, 6] of the same molecule?
**A.** 0.437 µM

**Q.** And the Ki [3, 7]?
**A.** 0.457 µM

**Q.** How did the Ki [1, 8] turn out when COC(=O)C1=C(C)NC(c2ccccc2)=C(C(=O)NCCCN2CCC(c3ccccc3)(c3ccccc3)CC2)C1c1ccc([N+](=O)[O-])cc1 (stereo not drawn) [Example 78, 1,4-Dihydro-5-methoxycarbonyl-6-methyl-4-(4-nitro)phenyl-2-phenyl-3-(N-(3-(4,4-diphenylpiperidin-1-yl)propyl))carboxamidopyridine hydrochloride hydrate] was run?
**A.** 0.00427 µM

**Q.** What about the Ki [2] of the same molecule?
**A.** 0.55 µM

**Q.** And the Ki [3]?
**A.** 0.724 µM

**Q.** For COC(=O)C1=C(C)NC(C)=C(C(=O)NCCCN2CCC(c3ccccc3)(c3ccccc3)CC2)C1c1ccc(-c2ccccc2)cc1 (stereo not drawn) [Example 7], which Ki [1, 8] is on record?
**A.** 0.617 µM

**Q.** And the Ki [2]?
**A.** 1.62 µM

**Q.** And the Ki [3]?
**A.** 3.8 µM

**Q.** What does the source list for CCOC(=O)C1=C(CC(=O)NCCCN2CCC(c3ccccc3)(c3ccccc3)CC2)NC(C)=C(C(=O)OC)C1c1ccc([N+](=O)[O-])cc1 (stereo not drawn) [Example 89, 3-Ethoxycarbonyl-1,4-dihydro-5-methoxycarbonyl-6-methyl-4-(4-nitro)phenyl-2-(N-(3-(4,4,-diphenylpiperidin-1-yl)propyl)carboxamido)methylpyridine, fumarate salt]?
**A.** Ki [1, 4]: 0.501 µM; Ki [2]: 1.95 µM; Ki [3]: 2.34 µM

**Q.** Which Ki [1, 8] does the source give for COC(=O)C1=C(C)NC(C)=C(C(=O)N(C)CCCN2CCC(c3ccccc3)(c3ccccc3)CC2)C1c1ccc([N+](=O)[O-])cc1 (stereo not drawn) [Example 46, hydrochloride hemihydrate] here?
**A.** 0.0204 µM

**Q.** What about the Ki [2] of the same molecule?
**A.** 0.49 µM

**Q.** What about the Ki [3] of the same molecule?
**A.** 0.676 µM

**Q.** With CCC1=C(C(=O)NCCCN2CCC(c3ccccc3)(c3ccccc3)CC2)C(c2ccc([N+](=O)[O-])cc2)C(C(=O)OCc2ccccc2)=C(C)N1 (stereo not drawn) [Example 4, 5-Benzyloxycarbonyl-2-ethyl-1,4-dihydro-6-methyl-4-(4-nitrophenyl)-3-(N-(3-(4,4-diphenylpiperidin-1-yl)propyl)carboxamido) pyridine, Hydrochloride Salt, Hydrate] as the molecule, how does the Ki [1, 9] read?
**A.** 0.0676 µM

**Q.** And the Ki [2, 10]?
**A.** 1.02 µM

**Q.** What about the Ki [3, 11] of the same molecule?
**A.** 0.55 µM

**Q.** How did the Ki [1, 9] turn out when COC(=O)C1=C(C)NC(C)=C(C(=O)NCCCN2CCC(c3ccccc3)(c3ccccc3)CC2)C1c1cc[n+]([O-])cc1 (stereo not drawn) [Example 9, 1,4-Dihydro-3-methoxycarbonyl-2,6-Dimethyl-4-(1-oxido-4-pyridyl)-5-(N-(3-(4,4-diphenylpiperidin-1-yl)propyl)carboxamido)pyridine] was run?
**A.** 0.024 µM

**Q.** What about the Ki [2, 10] of the same molecule?
**A.** 0.55 µM

**Q.** And the Ki [3, 11]?
**A.** 2.19 µM

**Q.** Which results are given for COC(=O)C1=C(C)NC(C)=C(C(=O)NCCCN2CCC(c3ccccc3)(c3ccccc3)CC2)C1c1ccoc1 (stereo not drawn) [Example 23, 4-(3-Furyl)-1,4-dihydro-3-methoxycarbonyl-2,6-dimethyl-5-(N-(3-(4,4-diphenylpiperidin-1-yl)propyl)carboxamide)pyridine]?
**A.** Ki [1, 9]: 0.0145 µM; Ki [2, 10]: 0.562 µM; Ki [3, 11]: 0.955 µM

**Q.** For CC1=C(C(=O)NCCCN2CCC(c3ccccc3)(c3ccccc3)CC2)C(c2ccc([N+](=O)[O-])cc2)C(C(=O)NC(C)C)=C(C)N1 (stereo not drawn) [Example 156, 1,4-Dihydro-3-(N-isopropyl) carboxamido-2,6-dimethyl-4-(4-nitrophenyl)-5-{N-[3-(^414-diphenylpiperidin-1-yl)propyl]}carboxamidopyridine], which Ki [1, 5] is on record?
**A.** 0.0955 µM

**Q.** And the Ki [2, 6]?
**A.** 0.562 µM

**Q.** What about the Ki [3, 7] of the same molecule?
**A.** 0.316 µM

**Q.** How did the Ki [1, 8] turn out when COC(=O)C1=C(C)NC(C)=C(C(=O)NCCCN2CCC(c3ccccc3)(c3ccccc3)CC2)C1c1ccc(Cl)c(Cl)c1 (stereo not drawn) [Example 24, 4-(3,4-Dichlorophenyl)-1,4-dihydro-3-methoxycarbonyl-2,6-dimethyl-5-(3-(D 44-diphenylpiperidin-1-yl)propylcarboxamido)pyridine] was run?
**A.** 0.00186 µM

**Q.** And the Ki [2]?
**A.** 1.26 µM

**Q.** What about the Ki [3] of the same molecule?
**A.** 0.912 µM
